For series [1] the following is noted: ether bond, 20-membered ring, PPh3/DIAD, THF.
For series [2] the following is noted: ether bond, PPh3/DIAD, THF.
Another series relates to NL-RLuc virus. Kind of series: Inhibition of HIV replication (NL-RLuc virus, luciferase readout, MT-2 cells). As to conditions: Human immunodeficiency virus 1, MT2, 120 h. It counts as cell-based. An excerpt:
Inhibition of HIV Replication:
A recombinant NL-RLuc proviral clone was constructed in which a section of the nef gene from NL4-3 was replaced with the Renilla Luciferase gene. This virus is fully infectious and can undergo multiple cycles of replication in cell culture. In addition, the luciferous reporter provides a simple and easy method for quantitating the extent of virus growth and consequently, the antiviral activity of test compounds. The plasmid pNLRLuc contains the proviral NL-Rluc DNA cloned into pUC18 at the PvuII site. The NL-RLuc virus was prepared by transfection of 293T cells with the plasmid pNLRLuc. Transfections were performed using the LipofectAMINE PLUS kit from Invitrogen (Carlsbad, Calif.) according to the manufacturer and the virus generated was titered in MT-2 cells. For susceptibility analyses, the titrated virus was used to infect MT-2 cells in the presence of compound, and after 5 days of incubation, cells were processed and quantitated for virus growth by the amount of expressed luciferase. Assay media was RPMI 1640 supplemented with 10% heat inactivated fetal bovine serum (FBS), 100 units/ml penicillin G/100 units/ml streptomycin, 10 mM HEPES buffer pH 7.55 and 2 mM L-glutamine. The results from at least 2 experiments were used to calculate the EC50 values. Luciferase was quantitated using the Dual Luciferase kit from Promega (Madison, Wis.). Susceptibility of viruses to compounds was determined by incubation in the presence of serial dilutions of the compound. The 50% effective concentration (EC50) was calculated by using the exponential form of the median effect equation where (Fa)=1/[1+(ED50/drug conc.)^m] (Johnson V A, Byington R T. Infectivity Assay. In Techniques in HIV Research. ed. Aldovini A, Walker B D. 71-76. New York: Stockton Press. 1990). Activity equal to A refers to a compound having an EC50≤100 nM, while B and C denote compounds having an EC50 between 100 nM and luM (B) or >1 uM (C).

The mark [3] stands for this setting: from COC(=O)[C@@H](OC(C)(C)C)c1c(C)cc2nc(-c3cccc(-c4cc(C)ccc4O)c3)cn2c1N1CCC(C)(OCCOC[C@@H](C)O)CC1, 39.2 mM, 18.0 h, 2 steps.
The mark [4] stands for this setting: from COC(=O)[C@@H](OC(C)(C)C)c1c(C)c(C)c2nc(-c3cccc(-c4cc(F)ccc4O)c3)cn2c1N1CCC(C)(OCCOC[C@@H](C)O)CC1, 47.0 mM, 18.0 h.
Setting [5] is: from COC(=O)[C@@H](OC(C)(C)C)c1c(C)c(C)c2nc(-c3cccc(-c4cc(C)ccc4O)c3)cn2c1N1CCC(C)(OCCOC[C@@H](C)O)CC1, 3.49 mM, 25.0 °C, 16.0 h.

Where two headings read alike, the source gives them in different places.

In series [1] (setting [3]), `COC(=O)[C@@H](OC(C)(C)C)c1c(C)cc2nc3cn2c1N1CCC(C)(CC1)OCCOC[C@H](C)Oc1ccc(C)cc1-c1cccc-3c1` came in with a ring closure, isolated yield of 65%. Besides, the ring closure, yield of all isomers in series [2] (setting [3]) was 65%.
Regarding `COC(=O)[C@@H](OC(C)(C)C)c1c(C)c(C)c2nc3cn2c1N1CCC(C)(CC1)OCCOC[C@H](C)Oc1ccc(F)cc1-c1cccc-3c1`, in series [1] (setting [4]), the ring closure, isolated yield worked out at 59%. The ring closure, yield of all isomers in series [2] (setting [4]) stood at 59%.
For the molecule `COC(=O)[C@@H](OC(C)(C)C)c1c(C)c(C)c2nc3cn2c1N1CCC(C)(CC1)OCCOC[C@H](C)Oc1ccc(C)cc1-c1cccc-3c1`, the ring closure, isolated yield in series [1] (setting [5]) was found to be 60%. In series [2] (setting [5]), this molecule showed a ring closure, yield of all isomers of 60%.
Consider `Cc1c([C@H](OC(C)(C)C)C(=O)O)c2n3cc(nc3c1CO)-c1cccc(c1)-c1cc(F)c(F)cc1O[C@@H](C)COCCOC1(C)CCN2CC1` [Example 6, (2S)-2-(tert-Butoxy)-2-[(22S)-17,18-difluoro-5-(hydroxymethyl)-4,22,28-trimethyl-21,24,27-trioxa-1,7,34-triazahexacyclo[26.2.2.1^6,^9.1^1^0,^1^4.0^2,^7.0^1^5,^2^0]tetratriaconta-2,4,6(34),8,10(33),11,13,15(20),16,18-decaen-3-yl]acetic Acid], for which the figures for the EC50 in the series on NL-RLuc virus (read-out: Activity) and with NL-RLuc virus (read-out: EC50 μM) were under 0.1 µM and 0.002 µM, respectively.
For `Cc1cc(F)c2c(c1)O[C@@H](C)COCCOC1(C)CCN(CC1)c1c([C@H](OC(C)(C)C)C(=O)O)c(C)c(C)c3nc(c(Cl)n13)-c1cccc-2c1` [Example 21, (2S)-2-(tert-Butoxy)-2-((6S,E)-23-chloro-46-fluoro-14,27,28,44,6-pentamethyl-5,8,11-trioxa-2(5,2)-imidazo[1,2-a]pyridina-1(1,4)-piperidina-3(1,3),4(1,2)-dibenzenacycloundecaphane-26-yl)acetic acid], in that order: under 0.1 µM and 0.002 µM.
Consider `Cc1c([C@H](OC(C)(C)C)C(=O)O)c2n3c(Cl)c(nc3c1CO)-c1cccc(c1)-c1cc(F)c(F)cc1O[C@@H](C)COCCOC1(C)CCN2CC1` [Example 9, (2S)-2-(tert-Butoxy)-2-[(22S)-8-chloro-17,18-difluoro-5-(hydroxymethyl)-4,22,28-trimethyl-21,24,27-trioxa-1,7,34-triazahexacyclo[26.2.2.1^6,^9.1^1^0,^1^4.0^2,^7.0^1^5,^2^0]tetratriaconta-2,4,6(34),8,10(33),11,13,15(20),16,18-decaen-3-yl]acetic Acid], for which the EC50 in the series with NL-RLuc virus (read-out: Activity) was under 0.1 µM.
Take `Cc1c([C@H](OC(C)(C)C)C(=O)O)c2n3cc(nc3c1C)-c1cccc(c1)-c1cc(F)c(F)cc1O[C@@H](C)COCCOC1(C)CCN2CC1` [Example 2, (2S)-2-(tert-Butoxy)-2-[(22S)-17,18-difluoro-4,5,22,28-tetramethyl-21,24,27-trioxa-1,7,34-triazahexacyclo[26.2.2.1^6,^9.1^1^0,^1^4.0^2,^7.0^1^5,^2^0]tetratriaconta-2,4,6(34),8,10(33),11,13,15(20),16,18-decaen-3-yl]acetic Acid]: in the series on NL-RLuc virus (read-out: Activity), the EC50 is under 0.1 µM.
The same measure, in the same setting: in the case of `Cc1ccc2c(c1)-c1cccc(c1)-c1nc3c(C)c(C)c([C@H](OC(C)(C)C)C(=O)O)c(n3c1Cl)N1CCC(C)(CC1)OCCOC[C@H](C)O2` [Example 27, (2S)-2-(tert-Butoxy)-2-[(22S)-8-chloro-4,5,17,22,28-pentamethyl-21,24,27-trioxa-1,7,34-triazahexacyclo[26.2.2.1^6,^9.1^1^0,^1^4.0^2,^7.0^1^5,^2^0]tetratriaconta-2,4,6(34),8,10(33),11,13,15(20),16,18-decaen-3-yl]acetic Acid] it was under 0.1 µM; in that of `Cc1cc2nc3c(Cl)n2c(c1[C@H](OC(C)(C)C)C(=O)O)N1CCC(C)(CC1)OCCOC[C@H](C)Oc1cc(F)c(F)cc1-c1cccc-3c1` [Example 7, (2S)-2-(tert-Butoxy)-2-[(22S)-8-chloro-17,18-difluoro-4,22,28-trimethyl-21,24,27-trioxa-1,7,34-triazahexacyclo[26.2.2.1^6,^9.1^1^0,^1^4.0^2,^7.0^1^5,^2^0]tetratriaconta-2,4,6(34),8,10(33),11,13,15(20),16,18-decaen-3-yl]acetic Acid], under 0.1 µM.
The same measure, in the same setting: in the case of `Cc1cc(F)c2c(c1)O[C@@H](C)COCCOC1(C)CCN(CC1)c1c([C@H](OC(C)(C)C)C(=O)O)c(C)c(C)c3nc(cn13)-c1cccc-2c1` [Example 19, (2S)-2-(tert-Butoxy)-2-((6S,Z)-46-fluoro-14,27,28,44,6-pentamethyl-5,8,11-trioxa-2(5,2)-imidazo[1,2-a]pyridina-1(1,4)-piperidina-3(1,3),4(1,2)-dibenzenacycloundecaphane-26-yl)acetic Acid] it was under 0.1 µM; in that of `Cc1c([C@H](OC(C)(C)C)C(=O)O)c2n3c(Cl)c(nc3c1Cn1nccn1)-c1cccc(c1)-c1cc(F)c(F)cc1O[C@@H](C)COCCOC1(C)CCN2CC1` [Example 13, (2S)-2-(tert-butoxy)-2-[(22S)-8-chloro-17,18-difluoro-4,22,28-trimethyl-5-(2H-1,2,3-triazol-2-ylmethyl)-21,24,27-trioxa-1,7,34-triazahexacyclo[26.2.2.1^6,^9.1^1^0,^1^4.0^2,^7.0^1^5,^2^0]tetratriaconta-2,4,6(34),8,10(33),11,13,15(20),16,18-decaen-3-yl]acetic Acid], under 0.1 µM.
As to `Cc1cc2nc3cn2c(c1[C@H](OC(C)(C)C)C(=O)O)N1CCC(C)(CC1)OCCOC[C@H](C)Oc1cc(F)c(F)cc1-c1cccc-3c1` [Example 1, (2S)-2-(tert-Butoxy)-2-[(22S)-17,18-difluoro-4,22,28-trimethyl-21,24,27-trioxa-1,7,34-triazahexacyclo[26.2.2.1^6,^9.1^1^0,^1^4.0^2,^7.0^1^5,^2^0]tetratriaconta-2,4,6(34),8,10(33),11,13,15(20),16,18-decaen-3-yl]acetic Acid], the EC50 is under 0.1 µM with NL-RLuc virus (read-out: Activity) and 0.001 µM with NL-RLuc virus (read-out: EC50 μM).
As for `Cc1c([C@H](OC(C)(C)C)C(=O)O)c2n3c(C)c(nc3c1C)-c1cccc(c1)-c1cc(F)c(F)cc1O[C@@H](C)COCCOC1(C)CCN2CC1` [Example 15, (2S)-2-(tert-Butoxy)-2-[(22S)-17,18-difluoro-4,5,8,22,28-pentamethyl-21,24,27-trioxa-1,7,34-triazahexacyclo[26.2.2.1^6,^9.1^1^0,^1^4.0^2,^7.0^1^5,^2^0]tetratriaconta-2,4,6(34),8,10(33),11,13,15(20),16,18-decaen-3-yl]acetic Acid], in the series with NL-RLuc virus (read-out: Activity), the EC50 was under 0.1 µM.
Turning to `Cc1ccc2c(c1)-c1cccc(c1)-c1cn3c(c([C@H](OC(C)(C)C)C(=O)O)c(C)cc3n1)N1CCC(C)(CC1)OCCOC[C@H](C)O2` [Example 25, (2S)-2-(tert-Butoxy)-2-[(22S)-4,17,22,28-tetramethyl-21,24,27-trioxa-1,7,34-triazahexacyclo[26.2.2.1^6,^9.1^1^0,^1^4.0^2,^7.0^1^5,^2^0]tetratriaconta-2,4,6(34),8,10(33),11,13,15(20),16,18-decaen-3-yl]acetic acid], the EC50 with NL-RLuc virus (read-out: Activity) is under 0.1 µM; with NL-RLuc virus (read-out: EC50 μM) it was 0.002 µM.
Regarding `Cc1cc(F)c2c(c1)O[C@@H](C)COCCOC1(C)CCN(CC1)c1c([C@H](OC(C)(C)C)C(=O)O)c(C)cc3nc(cn13)-c1cccc-2c1` [Example 18, (2S)-2-(tert-Butoxy)-2-[(22S)-16-fluoro-4,18,22,28-tetramethyl-21,24,27-trioxa-1,7,34-triazahexacyclo[26.2.2.1^6,^9.1^1^0,^1^4.0^2,^7.0^1^5,^2^0]tetratriaconta-2,4,6(34),8,10(33),11,13,15(20),16,18-decaen-3-yl]acetic Acid], the EC50 in the series with NL-RLuc virus (read-out: Activity) was under 0.1 µM.

For the origin of these results see patent US10138253B2, “Imidazopyridine macrocycles as inhibitors of human immunodeficiency virus replication” (priority 2015, dated 2018).
